Measured values as given in ChEMBL document CHEMBL4765295, “Synthesis, pharmacological profile and 2D-QSAR studies of curcumin-amino acid conjugates as potential drug candidates” (Eur J Med Chem, 2020).
Values joined by “and” are separate entries in the source; they are usually repeats but may differ in a detail not shown here. Equal values may be shown once. One block for each molecule: values may come before it.

How the values were obtained:
Rattus norvegicus [1] = experiment: Anti-inflammatory activity in Wistar rat assessed as inhibition of carrageenan-induced paw edema at 10 mg/kg, ip pretreated for 1 hr followed by carrageenan challenge and measured after 4 hr relative to control (reference value: 0.00 +/-0.4 %); format: functional; conditions: time 5 hrs
Rattus norvegicus [2] = experiment: Antiinflammatory activity in Wistar rat model of carrageenan-induced paw edema assessed as reduction in thickness of paw edema at 10 mg/kg, ip pretreated for 1 hr followed by carrageenan challenge and measured after 2 hrs (reference value: 2.06 +/-0.09 mm); format: functional; conditions: time 3 hrs
Splenocyte [3] = experiment: Immunomodulatory activity in Swiss albino mouse splenocytes assessed as cell viability at 10 uM by measuring inhibition of stimulation index incubated for 72 hrs in presence of mitogenic stimulus phytohaemagglutinin by MTT assay relative to indomethacin; format: functional; conditions: read-out: Activity
[4] = Ulcerogenic activity in fasted albino mouse assessed as average severity of ulcers in gastric mucosa at 10 mg/kg, po for 3 days (reference value: 0); format: toxicity, organism-based; conditions: in vivo, 72 h, time 3 day
Candida albicans = experiment: Antifungal activity against Candida albicans incubated for 18 to 24 hrs by CLSI method; format: functional; conditions: time 18-24 hrs
Rattus norvegicus [5] = experiment: Anti-inflammatory activity in Wistar rat assessed as inhibition of carrageenan-induced paw edema at 10 mg/kg, ip pretreated for 1 hr followed by carrageenan challenge and measured after 24 hr relative to control (reference value: 0.00 +/-0.3 %); format: functional; conditions: time 25 hrs
[6] = Toxicity in albino mouse assessed as induction of toxic symptoms at 50 to 100 mg/kg, ip measured after 24 hrs; format: organism-based; conditions: in vivo, dose 50-100 mg/kg
Rattus norvegicus [7] = experiment: Antiinflammatory activity in Wistar rat model of carrageenan-induced paw edema assessed as reduction in thickness of paw edema at 10 mg/kg, ip pretreated for 1 hr followed by carrageenan challenge and measured after 4 hrs (reference value: 1.40 +/-0.10 mm); format: functional; conditions: time 5 hrs
[8] = Ulcerogenic activity in fasted albino mouse assessed as incidence of gastric ulceration at 10 mg/kg, po for 3 days (reference value: 0 %); format: toxicity, organism-based; conditions: in vivo, 72 h, time 3 day
Pseudomonas aeruginosa = experiment: Antibacterial activity against Pseudomonas aeruginosa ATCC 27853 incubated for 18 hrs by agar dilution assay; format: functional
Mus musculus [9] = experiment: Analgesic activity in albino mouse assessed reduction in acetic acid-induced abdominal writhing by measuring writing reflex at 10 mg/kg, ip pretreated for 1 hr followed by acetic acid challenge and measured starting 5 mins post acetic acid challenge for 10 mins (reference value: 42.4 +/- 1.02); format: functional; conditions: time 75 min, 1.25 h
[10] = Ulcerogenic activity in fasted albino mouse assessed as average number of ulcers in gastric mucosa at 10 mg/kg, po for 3 days (reference value: 0); format: toxicity, organism-based; conditions: in vivo, 72 h, time 3 day
Rattus norvegicus [11] = experiment: Antiinflammatory activity in Wistar rat model of carrageenan-induced paw edema assessed as reduction in thickness of paw edema at 10 mg/kg, ip pretreated for 1 hr followed by carrageenan challenge and measured after 1 hr (reference value: 2.41 +/-0.05 mm); format: functional; conditions: time 1 hr after carrageenan
Rattus norvegicus [12] = experiment: Anti-inflammatory activity in Wistar rat assessed as inhibition of carrageenan-induced paw edema at 10 mg/kg, ip pretreated for 1 hr followed by carrageenan challenge and measured after 3 hr relative to control (reference value: 0.00 +/-0.1 %); format: functional; conditions: time 4 hrs
Mus musculus [13] = experiment: Analgesic activity in albino mouse assessed protection against acetic acid-induced abdominal writhing at 10 mg/kg, ip pretreated for 1 hr followed by acetic acid challenge and measured starting 5 mins post acetic acid challenge for 10 mins relative to control (reference value: 0 %); format: functional; conditions: time 75 min, 1.25 h
Mus musculus [14] = experiment: Analgesic activity in albino mouse assessed as forepaw licking/jumping latency time at 10 mg/kg, ip measured after 30 mins by hot plate test (reference value: 5.02 +/- 0.09 sec); format: functional; conditions: 0.5 h
Rattus norvegicus [15] = experiment: Antiinflammatory activity in Wistar rat model of carrageenan-induced paw edema assessed as reduction in thickness of paw edema at 10 mg/kg, ip pretreated for 1 hr followed by carrageenan challenge and measured after 3 hrs (reference value: 1.79 +/-0.07 mm); format: functional; conditions: time 4 hrs
Rattus norvegicus [16] = experiment: Antiinflammatory activity in Wistar rat model of carrageenan-induced paw edema assessed as reduction in thickness of paw edema at 10 mg/kg, ip pretreated for 1 hr followed by carrageenan challenge and measured after 24 hrs (reference value: 0.83 +/-0.08 mm); format: functional; conditions: time 25 hrs
Rattus norvegicus [17] = experiment: Anti-inflammatory activity in Wistar rat assessed as inhibition of carrageenan-induced paw edema at 10 mg/kg, ip pretreated for 1 hr followed by carrageenan challenge and measured after 2 hr relative to control (reference value: 0.00 +/-0.03 %); format: functional; conditions: time 3 hrs
Streptococcus pyogenes = experiment: Antibacterial activity against Streptococcus pyogenes ATCC 19615 incubated for 18 hrs by agar dilution method; format: functional
Mus musculus [18] = experiment: Analgesic activity in albino mouse assessed as protection at 10 mg/kg, ip measured after 120 mins by hot plate test relative to indomethacin; format: functional; conditions: 2 h
Splenocyte [19] = experiment: Immunomodulatory activity in Swiss albino mouse splenocytes assessed as cell viability at 10 uM by measuring stimulation index incubated for 72 hrs in presence of mitogenic stimulus phytohaemagglutinin by MTT assay (reference value: 1.00 +/- 0.24); format: functional
Mus musculus [20] = experiment: Analgesic activity in albino mouse assessed protection against acetic acid-induced abdominal writhing at 10 mg/kg, ip pretreated for 1 hr followed by acetic acid challenge and measured starting 5 mins post acetic acid challenge for 10 mins relative to indomethacin; format: functional; conditions: time 75 min, 1.25 h
Salmonella typhimurium = experiment: Antibacterial activity against Salmonella typhimurium ATCC 19430 incubated for 18 hrs by agar dilution assay; format: functional, Salmonella enterica subsp. enterica serovar Typhimurium; conditions: Salmonella enterica
Mus musculus [21] = experiment: Analgesic activity in albino mouse assessed as protection at 10 mg/kg, ip measured after 90 mins by hot plate test (reference value: 0 %); format: functional; conditions: 1.5 h
Staphylococcus aureus = experiment: Antibacterial activity against Staphylococcus aureus ATCC 25923 incubated for 18 hrs by agar dilution method; format: functional
Mus musculus [22] = experiment: Analgesic activity in albino mouse assessed as protection at 10 mg/kg, ip measured after 30 mins by hot plate test (reference value: 0 %); format: functional; conditions: 0.5 h
Mus musculus [23] = experiment: Analgesic activity in albino mouse assessed as forepaw licking/jumping latency time at 10 mg/kg, ip measured after 120 mins by hot plate test (reference value: 2.62 +/- 0.06 sec); format: functional; conditions: 2 h
[24] = Ulcerogenic activity in fasted albino mouse assessed as ulcer index in gastric mucosa at 10 mg/kg, po for 3 days (reference value: 0); format: toxicity, organism-based; conditions: in vivo, 72 h, time 3 day
Mus musculus [25] = experiment: Analgesic activity in albino mouse assessed as forepaw licking/jumping latency time at 10 mg/kg, ip measured after 60 mins by hot plate test (reference value: 3.42 +/- 0.03 sec); format: functional; conditions: 1 h
Rattus norvegicus [26] = experiment: Anti-inflammatory activity in Wistar rat assessed as inhibition of carrageenan-induced paw edema at 10 mg/kg, ip pretreated for 1 hr followed by carrageenan challenge and measured after 1 hr relative to control (reference value: 0.00 +/-0.02 %); format: functional; conditions: time 2 hrs
Mus musculus [27] = experiment: Analgesic activity in albino mouse assessed as protection at 10 mg/kg, ip measured after 60 mins by hot plate test (reference value: 0 %); format: functional; conditions: 1 h
Mus musculus [28] = experiment: Analgesic activity in albino mouse assessed as forepaw licking/jumping latency time at 10 mg/kg, ip measured after 90 mins by hot plate test (reference value: 2.72 +/- 0.01 sec); format: functional; conditions: 1.5 h
Mus musculus [29] = experiment: Analgesic activity in albino mouse assessed as protection at 10 mg/kg, ip measured after 120 mins by hot plate test (reference value: 0 %); format: functional; conditions: 2 h
Rattus norvegicus [30] = experiment: Anti-inflammatory activity in Wistar rat assessed as inhibition of carrageenan-induced paw edema at 10 mg/kg, ip pretreated for 1 hr followed by carrageenan challenge and measured after 4 hr relative to indomethacin; format: functional; conditions: time 5 hrs
Peritoneal macrophage [31] = experiment: Antiinflammatory activity in […] mouse Peritoneal macrophages assessed as reduction in LPS-induced NO production by measuring reduction in stimulation index at 10 uM preincubated for 1 hr followed by LPS stimulation measured after 24 hrs by Griess method (reference value: 27.31 +/- 2.56 uM); format: functional; conditions: time 25 hrs
Peritoneal macrophage [32] = experiment: Antiinflammatory activity in […] mouse Peritoneal macrophages assessed as inhibition of LPS-induced NO production at 10 uM preincubated for 1 hr followed by LPS stimulation measured after 24 hrs by Griess method relative to control (reference value: 0.0 %); format: functional; set-up: scale not given: the % may be the effect or the level left; conditions: time 25 hrs

MIC (Candida albicans): 0.5 µg/mL and 0.602 µM
MIC (Pseudomonas aeruginosa): 0.25 µg/mL and 0.301 µM
MIC (Streptococcus pyogenes): 0.125 µg/mL and 0.15 µM
MIC (Salmonella typhimurium): 1 µg/mL and 1.2 µM
MIC (Staphylococcus aureus): 0.25 µg/mL and 0.301 µM
Structure (SMILES): COc1cc(/C=C/C(=O)/C=C(O)/C=C/c2ccc(OC(=O)[C@@H](CCSC)NC(=O)OC(C)(C)C)c(OC)c2)ccc1OC(=O)[C@@H](CCSC)NC(=O)OC(C)(C)C
inhibition in vivo at 10 mg/kg (Rattus norvegicus [1]): 89%
Activity (Rattus norvegicus [2]): 0.63 mm
viability at 10 µM (Splenocyte [3]): 47.7%
Activity [4]: 0
inhibition in vivo at 10 mg/kg (Rattus norvegicus [5]): 41%
Activity [6]: Non-Toxic
Activity (Rattus norvegicus [7]): 0.15 mm
Activity [8]: 0%
Activity (Mus musculus [9]): 19.6
Activity [10]: 0
Activity (Rattus norvegicus [11]): 1.1 mm
inhibition in vivo at 10 mg/kg (Rattus norvegicus [12]): 74%
Activity (Mus musculus [13]): 53.8%
Time (Mus musculus [14]): 5.14 s
Activity (Rattus norvegicus [15]): 0.47 mm
Activity (Rattus norvegicus [16]): 0.49 mm
inhibition in vivo at 10 mg/kg (Rattus norvegicus [17]): 69%
Activity (Mus musculus [18]): 169%
Activity_index (Splenocyte [19]): 2.53
Activity (Mus musculus [20]): 87.3%
Activity (Mus musculus [21]): 77.2%
Activity (Mus musculus [22]): 2.4%
Time (Mus musculus [23]): 4.48 s
UI [24]: 0
Time (Mus musculus [25]): 5.48 s
inhibition in vivo at 10 mg/kg (Rattus norvegicus [26]): 58%
Activity (Mus musculus [27]): 60.2%
Time (Mus musculus [28]): 4.82 s
Activity (Mus musculus [29]): 71%
inhibition in vivo at 10 mg/kg (Rattus norvegicus [30]): 102%

MIC (Candida albicans): 0.5 µg/mL and 0.642 µM
MIC (Pseudomonas aeruginosa): 0.25 µg/mL and 0.321 µM
MIC (Streptococcus pyogenes): 0.125 µg/mL and 0.161 µM
MIC (Salmonella typhimurium): 0.5 µg/mL and 0.642 µM
MIC (Staphylococcus aureus): 0.5 µg/mL and 0.642 µM
Structure (SMILES): COc1cc(/C=C/C(=O)/C=C(O)/C=C/c2ccc(OC(=O)C(C)NC(=O)OCc3ccccc3)c(OC)c2)ccc1OC(=O)C(C)NC(=O)OCc1ccccc1 (configuration not stated)
inhibition in vivo at 10 mg/kg (Rattus norvegicus [1]): 100%
Activity (Rattus norvegicus [2]): 0.26 mm
viability at 10 µM (Splenocyte [3]): 103%
Activity [4]: 0.67
inhibition in vivo at 10 mg/kg (Rattus norvegicus [5]): 100%
Activity [6]: Non-Toxic
Activity (Rattus norvegicus [7]): 0 mm
Activity [8]: 3.33%
Activity (Mus musculus [9]): 19.75
Activity [10]: 0.67
Activity (Rattus norvegicus [11]): 0.67 mm
inhibition in vivo at 10 mg/kg (Rattus norvegicus [12]): 97%
Activity (Mus musculus [13]): 53.4%
Time (Mus musculus [14]): 6.26 s
Activity (Rattus norvegicus [15]): 0.05 mm
Activity (Rattus norvegicus [16]): 0 mm
inhibition in vivo at 10 mg/kg (Rattus norvegicus [17]): 87%
Activity (Mus musculus [18]): 45.5%
Activity_index (Splenocyte [19]): 1.18
Activity (Mus musculus [20]): 86.7%
Activity (Mus musculus [21]): 18.4%
Activity (Mus musculus [22]): 24.7%
Activity (Peritoneal macrophage [31]): 14.91 µM
Time (Mus musculus [23]): 3.12 s
UI [24]: 4.67
Activity (Peritoneal macrophage [32]): 45.41%
Time (Mus musculus [25]): 5.24 s
inhibition in vivo at 10 mg/kg (Rattus norvegicus [26]): 72%
Activity (Mus musculus [27]): 53.2%
Time (Mus musculus [28]): 3.22 s
Activity (Mus musculus [29]): 19.1%
inhibition in vivo at 10 mg/kg (Rattus norvegicus [30]): 115%
